Test results as given in ChEMBL document CHEMBL1149654, “Caprolactams as potent CGRP receptor antagonists for the treatment of migraine” (Bioorg Med Chem Lett, 2007).

Tests used:
[1] = molecular target: T1, Calcitonin-gene-related peptide receptor, CALCRL/RAMP1 (Homo sapiens, UniProt O60894+Q16602); assay: Displacement of [125I]CGRP from human CL receptor in RAMP1 membranes; assay type: cell membranes
[2] = molecular target: T1, Calcitonin-gene-related peptide receptor, CALCRL/RAMP1; assay: Antagonist activity at human CGRP receptor in E10 cells assessed as inhibition of cAMP production; assay type: functional, cell-based
[3] = molecular target: T1, Calcitonin-gene-related peptide receptor, CALCRL/RAMP1; assay: Displacement of [125I]CGRP from human CL receptor in RAMP1 membranes at 100 uM; assay type: cell membranes
[4] = Bioavailability in rat at 10 mg/kg, po; assay type: ADME, organism-based; settings: in vivo
[5] = Clearance in rat at 10 mg/kg, po; assay type: ADME, organism-based; set-up: dose 10 mg/kg, route oral; settings: in vivo

T1 sequence (O60894 whole entry): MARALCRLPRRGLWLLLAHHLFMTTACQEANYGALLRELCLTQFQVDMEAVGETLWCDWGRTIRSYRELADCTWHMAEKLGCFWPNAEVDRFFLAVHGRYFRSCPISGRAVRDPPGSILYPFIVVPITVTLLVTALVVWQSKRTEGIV
T1 sequence (Q16602 whole entry): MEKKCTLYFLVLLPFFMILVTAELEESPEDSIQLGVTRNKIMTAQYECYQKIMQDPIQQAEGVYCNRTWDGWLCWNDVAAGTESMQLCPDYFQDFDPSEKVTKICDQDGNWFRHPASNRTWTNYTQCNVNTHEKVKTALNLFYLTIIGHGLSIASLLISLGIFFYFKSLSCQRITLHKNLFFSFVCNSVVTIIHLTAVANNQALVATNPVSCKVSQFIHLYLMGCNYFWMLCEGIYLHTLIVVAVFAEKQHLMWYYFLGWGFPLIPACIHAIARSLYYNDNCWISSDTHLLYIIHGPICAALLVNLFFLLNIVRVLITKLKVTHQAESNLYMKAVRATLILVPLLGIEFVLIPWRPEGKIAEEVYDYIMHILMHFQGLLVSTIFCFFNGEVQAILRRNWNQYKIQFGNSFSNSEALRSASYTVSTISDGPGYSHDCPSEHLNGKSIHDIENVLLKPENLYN

Row | SMILES | Ki [1] [nM] | IC50 [2] [nM] | Activity [3] [%] | bioavailability [4] [%] | CL/F [5] [mL/min/kg]
1 | O=C(N[C@@H]1CCCCN(CC2CC2)C1=O)N1CCC(N2Cc3ccccc3NC2=O)CC1 | 7800 | 2400 |  |  | 
2 | O=C(NC1CC(c2ccccc2)CCN(CC2CC2)C1=O)N1CCC(n2nc(-c3ccccc3)[nH]c2=O)CC1 (racemic; 27) | 544 | 3820 |  |  | 
3 | CC(C)(C)OC(=O)CN1C(=O)C(NC(=O)N2CCC(N3Cc4ccccc4NC3=O)CC2)CCCC1c1ccccc1 (racemic; 12) | 17000 |  |  |  | 
4 | O=C(NC1CC(c2ccccc2)CCN(CC2CC2)C1=O)N1CCC(n2cc(-c3ccccc3)[nH]c2=O)CC1 (racemic; 30) | 17 | 141 |  |  | 
5 | O=C(NC1CC(c2ccccc2)CCN(CC2CC2)C1=O)N1CCC(n2nc(-c3ccccc3)[nH]c2=O)CC1 (racemic; 28) | 266 | 488 |  |  | 
6 | O=C(N[C@@H]1CCCCN(Cc2ccccc2)C1=O)N1CCC(N2Cc3ccccc3NC2=O)CC1 | 1800 |  |  |  | 
7 | O=C(N[C@@H]1CC[C@@H](c2ccccc2)CN(CC2CC2)C1=O)N1CCC(n2cc(-c3ccccc3)[nH]c2=O)CC1 | 2 | 4 |  | 27 | 36
8 | O=C(N[C@H]1CCCCN(Cc2ccccc2)C1=O)N1CCC(N2Cc3ccccc3NC2=O)CC1 | 11100 |  |  |  | 
9 | CC(C)(C)OC(=O)CN1C(=O)C(NC(=O)N2CCC(N3Cc4ccccc4NC3=O)CC2)CCCC1c1ccccc1 (racemic; 13) | 1990 | 2120 |  |  | 
10 | CC(C)(C)OC(=O)CN1C(=O)[C@H](NC(=O)N2CCC(N3Cc4ccccc4NC3=O)CC2)CCC[C@@H]1c1ccccc1 | 934 |  |  |  | 
11 | CC(C)N1C(=O)[C@H](NC(=O)N2CCC(N3Cc4ccccc4NC3=O)CC2)N=C(c2ccccc2)c2ccccc21 | 55 | 65 |  |  | 
12 | O=C(NC1CCC(c2ccccc2)CN(CC2CC2)C1=O)N1CCC(N2Cc3ccccc3NC2=O)CC1 (racemic; 17) | 695 | 778 |  |  | 

Further lines, results first:

Row | Ki [1] [nM] | IC50 [2] [nM] | Activity [3] [%] | bioavailability [4] [%] | CL/F [5] [mL/min/kg] | SMILES
13 | 689 | 408 |  |  |  | O=C(N[C@@H]1CCC[C@H](c2ccccc2)N(CC2CC2)C1=O)N1CCC(N2Cc3ccccc3NC2=O)CC1
14 | > 10000 | 471 |  |  |  | CC(C)(C)OC(=O)CN1C(=O)[C@@H](NC(=O)N2CCC(N3Cc4ccccc4NC3=O)CC2)CCC[C@H]1c1ccccc1
15 |  |  | 63 |  |  | O=C(N[C@@H]1CCN(Cc2ccccc2)C1=O)N1CCC(N2Cc3ccccc3NC2=O)CC1
16 | 3700 | 3100 |  |  |  | CC(C)N1C(=O)C(NC(=O)N2CCC(N3Cc4ccccc4NC3=O)CC2)CCc2ccccc21 (configuration not stated)
17 | 25 | 36 |  |  |  | O=C(N[C@@H]1CC[C@@H](c2ccccc2)CN(CC2CC2)C1=O)N1CCC(N2Cc3ccccc3NC2=O)CC1
18 | 29 | 32 |  |  |  | O=C(N[C@@H]1CC[C@@H](c2ccccc2)CN(CC2CC2)C1=O)N1CCC(N2CCc3ccccc3NC2=O)CC1
19 | 35 | 133 |  |  |  | O=C(NC1CC(c2ccccc2)CCN(CC2CC2)C1=O)N1CCC(n2cc(-c3ccccc3)[nH]c2=O)CC1 (racemic; 29)
20 | 5830 | 6630 |  |  |  | O=C(N[C@H]1CC[C@H](c2ccccc2)CN(CC2CC2)C1=O)N1CCC(N2Cc3ccccc3NC2=O)CC1
21 | 29 | 45 |  |  |  | O=C(N[C@@H]1CC[C@@H](c2ccccc2)CN(CC2CC2)C1=O)N1CCC(n2nc(-c3ccccc3)[nH]c2=O)CC1
22 | 31 | 54 |  |  |  | O=C(NC1CCC(c2ccccc2)CN(CC2CC2)C1=O)N1CCC(N2Cc3ccccc3NC2=O)CC1 (racemic; 18)
23 |  |  | 46 |  |  | O=C(N[C@@H]1CCCN(Cc2ccccc2)C1=O)N1CCC(N2Cc3ccccc3NC2=O)CC1
